Reference: ChEMBL document CHEMBL4229524, “Design, synthesis and preclinical evaluation of 5-methyl-N4-aryl-furo[2,3-d]pyrimidines as single agents with combination chemotherapy potential” (Bioorg Med Chem Lett, 2018)

Legend:
[1] = molecular target: Platelet-derived growth factor receptor beta (Homo sapiens, UniProt P09619); experiment: Inhibition of PDGF-BB-induced PDGFRbeta activation in human SH-SY5Y cells pretreated for 60 mins followed by PDGF-BB addition and measured after 10 mins by ELISA; type: cell-based
Sequence of Platelet-derived growth factor receptor beta (P09619 whole entry): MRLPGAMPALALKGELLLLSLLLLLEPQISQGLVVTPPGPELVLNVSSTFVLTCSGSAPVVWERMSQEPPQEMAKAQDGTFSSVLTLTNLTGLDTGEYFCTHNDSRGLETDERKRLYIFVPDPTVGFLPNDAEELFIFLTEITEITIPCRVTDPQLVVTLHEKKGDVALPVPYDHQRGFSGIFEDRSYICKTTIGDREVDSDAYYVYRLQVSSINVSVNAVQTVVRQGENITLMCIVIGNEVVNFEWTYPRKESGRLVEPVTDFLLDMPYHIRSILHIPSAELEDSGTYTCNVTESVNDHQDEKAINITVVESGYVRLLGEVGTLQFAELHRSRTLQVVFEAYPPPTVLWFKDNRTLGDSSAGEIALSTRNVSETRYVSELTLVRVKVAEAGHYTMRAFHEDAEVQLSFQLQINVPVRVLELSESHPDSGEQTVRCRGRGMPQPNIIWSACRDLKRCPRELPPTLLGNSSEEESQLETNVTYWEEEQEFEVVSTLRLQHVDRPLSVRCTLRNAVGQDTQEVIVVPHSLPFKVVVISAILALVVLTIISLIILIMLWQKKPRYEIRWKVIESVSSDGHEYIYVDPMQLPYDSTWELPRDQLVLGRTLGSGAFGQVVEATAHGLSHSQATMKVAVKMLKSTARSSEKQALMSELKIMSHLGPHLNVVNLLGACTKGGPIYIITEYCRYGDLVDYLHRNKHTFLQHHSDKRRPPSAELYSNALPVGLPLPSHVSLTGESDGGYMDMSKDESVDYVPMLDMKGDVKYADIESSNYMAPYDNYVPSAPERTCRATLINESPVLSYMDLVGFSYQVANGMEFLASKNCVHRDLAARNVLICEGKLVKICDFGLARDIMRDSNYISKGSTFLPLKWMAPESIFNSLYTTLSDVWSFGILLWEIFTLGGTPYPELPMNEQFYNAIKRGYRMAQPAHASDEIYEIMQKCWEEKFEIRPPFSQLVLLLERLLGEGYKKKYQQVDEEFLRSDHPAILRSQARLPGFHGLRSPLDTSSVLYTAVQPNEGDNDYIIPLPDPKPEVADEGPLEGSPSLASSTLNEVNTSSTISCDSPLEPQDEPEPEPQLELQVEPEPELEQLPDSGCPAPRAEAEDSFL

[2] = molecular target: Epidermal growth factor receptor (Homo sapiens, UniProt P00533); type: cell-based
Sequence of Epidermal growth factor receptor (P00533 whole entry): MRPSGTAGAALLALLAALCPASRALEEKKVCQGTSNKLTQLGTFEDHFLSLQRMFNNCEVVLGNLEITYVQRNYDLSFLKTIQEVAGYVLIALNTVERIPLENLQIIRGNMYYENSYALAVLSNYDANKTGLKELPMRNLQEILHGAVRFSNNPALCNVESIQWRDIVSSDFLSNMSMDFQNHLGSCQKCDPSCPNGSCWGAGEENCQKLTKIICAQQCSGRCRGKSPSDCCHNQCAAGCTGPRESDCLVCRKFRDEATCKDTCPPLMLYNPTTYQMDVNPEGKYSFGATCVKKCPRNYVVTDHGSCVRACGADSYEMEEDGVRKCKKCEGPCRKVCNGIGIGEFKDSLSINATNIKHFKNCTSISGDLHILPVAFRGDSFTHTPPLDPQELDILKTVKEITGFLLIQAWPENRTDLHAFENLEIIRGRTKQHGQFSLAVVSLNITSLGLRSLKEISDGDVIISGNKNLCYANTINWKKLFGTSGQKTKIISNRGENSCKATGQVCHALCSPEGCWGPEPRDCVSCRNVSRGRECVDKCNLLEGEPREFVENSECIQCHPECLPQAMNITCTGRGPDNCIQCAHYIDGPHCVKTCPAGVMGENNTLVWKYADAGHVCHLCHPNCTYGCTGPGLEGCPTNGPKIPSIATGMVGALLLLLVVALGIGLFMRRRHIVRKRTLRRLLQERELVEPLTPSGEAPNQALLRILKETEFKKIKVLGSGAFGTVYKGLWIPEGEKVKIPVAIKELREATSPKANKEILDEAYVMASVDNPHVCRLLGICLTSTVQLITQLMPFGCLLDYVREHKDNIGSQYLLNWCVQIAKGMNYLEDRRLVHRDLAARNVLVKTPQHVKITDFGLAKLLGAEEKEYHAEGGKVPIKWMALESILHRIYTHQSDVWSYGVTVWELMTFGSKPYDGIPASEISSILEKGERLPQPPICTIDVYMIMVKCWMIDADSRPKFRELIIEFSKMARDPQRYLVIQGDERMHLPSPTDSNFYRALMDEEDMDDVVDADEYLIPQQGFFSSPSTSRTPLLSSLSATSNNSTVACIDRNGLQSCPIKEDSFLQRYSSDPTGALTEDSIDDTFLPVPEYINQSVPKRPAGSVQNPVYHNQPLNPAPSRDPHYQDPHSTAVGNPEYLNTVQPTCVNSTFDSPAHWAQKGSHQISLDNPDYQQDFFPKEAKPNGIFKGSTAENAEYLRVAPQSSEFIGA

[3] = molecular target: Vascular endothelial growth factor receptor 2 (Homo sapiens, UniProt P35968); type: cell-based
Sequence of Vascular endothelial growth factor receptor 2 (P35968 whole entry): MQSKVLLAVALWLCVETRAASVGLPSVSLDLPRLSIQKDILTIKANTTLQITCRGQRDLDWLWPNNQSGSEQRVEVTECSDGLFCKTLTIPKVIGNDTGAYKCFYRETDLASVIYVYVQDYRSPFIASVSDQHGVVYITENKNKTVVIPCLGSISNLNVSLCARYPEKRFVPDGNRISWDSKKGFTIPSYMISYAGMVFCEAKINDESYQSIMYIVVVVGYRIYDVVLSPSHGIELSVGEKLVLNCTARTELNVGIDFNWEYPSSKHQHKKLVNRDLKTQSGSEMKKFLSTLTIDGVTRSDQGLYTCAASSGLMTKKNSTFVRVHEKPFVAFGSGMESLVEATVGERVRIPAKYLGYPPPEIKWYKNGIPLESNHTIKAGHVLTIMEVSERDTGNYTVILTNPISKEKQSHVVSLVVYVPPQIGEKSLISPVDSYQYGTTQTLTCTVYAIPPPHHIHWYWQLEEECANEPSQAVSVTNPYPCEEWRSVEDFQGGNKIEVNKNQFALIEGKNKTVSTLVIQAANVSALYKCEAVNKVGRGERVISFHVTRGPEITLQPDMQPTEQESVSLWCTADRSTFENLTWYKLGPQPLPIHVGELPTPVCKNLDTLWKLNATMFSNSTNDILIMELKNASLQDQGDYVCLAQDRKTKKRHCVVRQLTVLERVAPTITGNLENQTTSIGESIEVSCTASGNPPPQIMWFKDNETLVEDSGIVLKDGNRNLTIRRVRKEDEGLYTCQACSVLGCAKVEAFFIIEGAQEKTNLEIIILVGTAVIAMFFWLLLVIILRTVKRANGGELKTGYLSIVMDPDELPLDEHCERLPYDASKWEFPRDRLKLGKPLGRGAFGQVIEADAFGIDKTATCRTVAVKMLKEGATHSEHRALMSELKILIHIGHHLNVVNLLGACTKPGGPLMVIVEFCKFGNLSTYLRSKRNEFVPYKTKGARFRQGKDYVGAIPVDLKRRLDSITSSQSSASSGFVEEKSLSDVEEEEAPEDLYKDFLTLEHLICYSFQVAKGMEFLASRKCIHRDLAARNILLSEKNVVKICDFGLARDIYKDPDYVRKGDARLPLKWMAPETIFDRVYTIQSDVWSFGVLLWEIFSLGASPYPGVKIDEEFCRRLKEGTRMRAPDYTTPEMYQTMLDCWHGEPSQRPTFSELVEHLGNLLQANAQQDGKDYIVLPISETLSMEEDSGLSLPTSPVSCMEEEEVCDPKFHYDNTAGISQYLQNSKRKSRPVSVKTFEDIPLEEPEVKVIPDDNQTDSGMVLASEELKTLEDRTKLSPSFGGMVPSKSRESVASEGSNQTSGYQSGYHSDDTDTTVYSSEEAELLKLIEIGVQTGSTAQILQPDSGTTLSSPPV

A-431 = experiment: Cytotoxicity against human A431 cells over-expressing EGFR; type: functional, cell-based
Chorioallantoic membrane = experiment: Antiangiogenic activity in Leghorn chicken embryo chorioallantoic membrane after 40 hrs by microscopic analysis; type: functional, tissue-based; conditions: Gallus gallus
A10 = experiment: Induction of microtubule depolymerization in rat A10 cells after 18 hrs by indirect immunofluorescence method; type: functional, cell-based; conditions: A10, 18 h
SK-OV-3 = experiment: Antiproliferative activity against human SKOV3 cells after 72 hrs by sulforhodamine B assay; type: functional, cell-based; conditions: SK-OV-3, 72 h
[4] = Antiproliferative activity against human wild-type Hela-beta3 cells after 72 hrs by sulforhodamine B assay; type: functional

| SMILES | IC50 [1] [nM] | IC50 [2] [nM] | IC50 [3] [nM] | IC50 (A-431) [nM] | IC50 (Chorioallantoic membrane) [nM] | EC50 (A10) [nM] | IC50 (SK-OV-3) [nM] | IC50 [4] [nM] |
| --- | --- | --- | --- | --- | --- | --- | --- | --- |
| CSc1ccc(N(C)c2ncnc3occ(C)c23)cc1 | 62.2 | 7.2 | 13.6 | 2.9 | 520 |  |  |  |
| COc1ccc(/C=C\c2cc(OC)c(OC)c(OC)c2)cc1O [COMBRETASTATIN A4] |  |  |  |  |  | 9.8 |  |  |
| CC(=O)O[C@H]1C(=O)[C@@]2(C)[C@H]([C@H](OC(=O)c3ccccc3)[C@]3(O)C[C@H](OC(=O)[C@H](O)[C@@H](NC(=O)c4ccccc4)c4ccccc4)C(C)=C1C3(C)C)[C@]1(OC(C)=O)CO[C@@H]1C[C@@H]2O [PACLITAXEL] |  |  |  |  |  |  | 5 | 24 |
| CNc1ccc(Nc2ncnc3occ(C)c23)cc1 | > 200 | > 200 | > 200 |  |  | > 10000 |  |  |
